Experimental data as given in paper PMC11292009, “Mapping protein binding sites by photoreactive fragment pharmacophores” (Communications Chemistry, 2024).
“And” between values parts separate entries of the source, which are not always exact repeats. Equal values may be shown once. Each block holds one compound with its values, some of them ahead of it.

Key:
Assay type in all cases: binding
[1] = test system: carbonic anhydrase II (CA); assay: Intact protein MS photoaffinity labeling screen, carbonic anhydrase; conditions: intact protein MS after 10 min irradiation
How it was run: (§1)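 Fragments are tested singly per well. Protein and fragment incubate 15 min for non-covalent association, then the plate goes directly to intact protein mass spectrometry, where mass shifts matching fragment addition give the labeling %.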

[2] = test system: T1, BRD4-BD1; assay: Intact MS photoaffinity labeling screen, BRD4-BD1 (302 nm, LCMS-TOF); conditions: for MS labeling percentage, BRD4: BRD4-BD1, 302 nm 10 min
T1 construct: screened the PhP library against the first bromodomain of BRD4 (BRD4-BD1); purchased GSK/GenScript
How it was run: (§2)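 Labeling detected as mass additions in deconvoluted intact-protein LCMS-TOF spectra. Protein at 1 μM in PBS was first mixed with one fragment per well on ice for 15 min, followed by 10 min UV exposure at 302 nm.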

[3] = test system: T2, KRas^G12D; assay: Intact MS photoaffinity labeling screen, KRas G12D (302 nm, LCMS-TOF); conditions: for MS labeling percentage, KRas: KRas G12D, 302 nm 10 min
T2 construct: purchased GSK/GenScript
How it was run: as §2

[4] = test system: lysozyme (Lyo); assay: Intact protein MS photoaffinity labeling screen, lysozyme; conditions: intact protein MS after 10 min irradiation
How it was run: as §1

[5] = test system: myoglobin (Myo); assay: Intact protein MS photoaffinity labeling screen, myoglobin; conditions: intact protein MS after 10 min irradiation
How it was run: as §1

[6] = test system: T3, STAT5B-NTD; assay: Intact MS photoaffinity labeling screen, STAT5B-NTD (365 nm, UHPLC-MS); conditions: for MS labeling percentage, STAT5B: STAT5B-NTD, 365 nm 10 min, no photocatalyst;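 on MS labeling percentage, STAT5B: 0.17 µL of 100 mM DMSO fragment stock added to the protein sample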
T3 construct: His-SUMO (N, cleaved yes); made in house; host or cells: E. coli BL21 RILP
How it was run: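 Intact-protein labeling detected by UHPLC-MS in positive ion mode over m/z 100–2000. Samples were first photo-crosslinked at 365 nm for 10 min at 4 °C. Before irradiation, 7 µM STAT5B in PBS pH 7.4 was pre-incubated with probe for 1 h in the dark at room temperature.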

[7] = test system: T3, STAT5B-NTD; assay: Intact MS labeling screen, STAT5B-NTD conjugated with photocatalyst Ir-G2-PEG3-COOH (450 nm); conditions: 450 nm 10 min;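 further: 0.14 µL of 100 mM DMSO fragment stock added to the conjugate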
How it was run: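 Ir-G2-PEG3-COOH photocatalyst (10 eq) activated 30 min with EDC/NHS/BOP, then conjugated to STAT5B-NTD (7 µM) overnight at RT or 1 h at 37 °C in dark. PhP added, 1 h dark, then 450 nm irradiation 10 min at 4 °C; labeling read by intact LC-MS, positive ion mode, m/z 100–2000.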

[8] = test system: CA, Lyo, Myo, BRD4-BD1, KRas G12D, STAT5B-NTD; assay: Intact MS labeling compared over all protein targets; conditions: for Labeling of the other protein targets (vs. preferred target): each of the other targets
Description: Using a plate-based format with one fragment per well, each fragment was incubated with the target proteins for 15 min to allow for the formation of non-covalent interactions. The plate was then irradiated at 302 or 365 nm for 10 min to enable the bound fragments to crosslink to the protein[26]. Finally, the results were directly analyzed from the plate using intact protein mass spectrometry by observing the mass additions that correspond to successful labeling (Fig. 2c, for labeling % values see Supplementary data). The library was first characterized against three benchmark proteins like carbonic anhydrase (CA), lysozyme (Lyo), and myoglobin (Myo).
The PhP library was screened against BRD4-BD1 and KRas^G12D as follows. Using a Labcyte Echo® 555 Liquid Handler, 150 nL of fragment solution (20 mM) was transferred into a Greiner 384 low-volume plate (white) to prepare the probe plate. The probe plate was placed on ice. 15 μL of protein stock solution (1 μM BRD4-BD1 (GSK/GenScript) or KRas^G12D (GSK/GenScript) in PBS buffer) was dispensed into wells containing fragments. The plate was left on ice for 15 min for incubation, then irradiated at 302 nm for 10 min, and centrifuged (1000 rpm, 1 min) to remove any bubbles. The plate was then analyzed by LCMS-TOF mass spectrometry (Agilent 1200 series liquid chromatography with Agilent Bio-HPLC PLRP-S (1000 Å, 5 µm × 50 mm × 1.0 mm, PL1312-1502) reverse phase HPLC column at 70 °C equipped with an Agilent G6224 time-of-flight (ToF), see Supplementary Note 2 for the full protocols). The deconvoluted spectra were analyzed using R Studio software.
During the analysis, the column temperature was maintained at a constant 60 °C, and a sample volume of 3 µL was injected for each analysis. Data acquisition was conducted in positive ion mode within the m/z 100–2000 (mass-to-charge ratio) range. For the full protocol and spectra of the hits, see Supplementary Note 2.

[9] = hit flag 1/0, sheet PhP, photoaffinity labeling screen
[10] = sheet PhP, experimental hit status flag given as 0 or 1

SMILES: Cc1cccc(-c2cnc(CNC(=O)CCC3(C)N=N3)[nH]2)c1 [PhP037, Cc1cccc(c1)-c2cnc([nH]2)CNC(=O)CCC3(C)N=N3]
MS labeling percentage, CA [1]: 0.9%
experimental hit status BRD4-BD1 ([2]; 0/1 flag): 0
MS labeling percentage, BRD4 [2]: 4.8%
experimental hit status KRAS-G12D ([3]; 0/1 flag): 0
MS labeling percentage, KRas [3]: 11.2%
MS labeling percentage, Lyo [4]: 0%
MS labeling percentage, Myo [5]: 1.4%
experimental hit status STAT5B-NTD ([6]; 0/1 flag): 0
MS labeling percentage, STAT5B [6]: 2%
MS labeling percentage, STAT5B+photocat [7]: 1.5%
Labeling efficiency over all protein targets (mean ± spread) ([8]; over all protein targets): 3.4 ± 3.8%

SMILES: COc1ccc(OC)c(C(O)C(C)NC(=O)CCC2(C)N=N2)c1 (centres unmarked) [PhP038, COc1ccc(OC)c(c1)C(O)C(C)NC(=O)CCC2(C)N=N2]
MS labeling percentage, CA [1]: 3.6%
MS labeling percentage, BRD4 [2]: 25.5%
BRD4-BD1 (experimental hit status) [2, 9]: 0
MS labeling percentage, KRas [3]: 62.1%
KRAS-G12D (experimental hit status) [3, 9]: 0
MS labeling percentage, Lyo [4]: 3.6%
MS labeling percentage, Myo [5]: 1.1%
MS labeling percentage, STAT5B [6]: 4.8%
STAT5B-NTD (experimental hit status) [6, 9]: 0
MS labeling percentage, STAT5B+photocat [7]: 5.1%
Number of targets labeled in higher than 10% amount ([8]; of the six protein targets): two

SMILES: CC1(CCC(=O)NCc2cc3ccccc3[nH]2)N=N1 [PhP040, N1=NC1(C)CCC(=O)NCc(c2)[nH]c(c23)cccc3]
MS labeling percentage, CA [1]: 0.7%
MS labeling percentage, BRD4 [2]: 2.1%
BRD4-BD1 (experimental hit status) [2, 9]: 0
MS labeling percentage, KRas [3]: 1.9%
KRAS-G12D (experimental hit status) [3, 9]: 0
MS labeling percentage, Lyo [4]: 0.3%
MS labeling percentage, Myo [5]: 0.5%
MS labeling percentage, STAT5B [6]: 75%
STAT5B-NTD (experimental hit status) [6, 9]: 0
MS labeling percentage, STAT5B+photocat [7]: 74%
Labeling of the other protein targets (vs. preferred target) [8]: > 3% and < 3%

More lines, main results first:

MS labeling percentage, CA [1]: 0%
SMILES: CCN(CCCNC(=O)CCC1(C)N=N1)c1ccccc1 [PhP048, c1ccccc1N(CC)CCCNC(=O)CCC2(C)N=N2]
MS labeling percentage, BRD4 [2]: 0.4%
BRD4-BD1 (experimental hit status) [2, 9]: 0
MS labeling percentage, KRas [3]: 29.4%
KRAS-G12D (experimental hit status) [3, 9]: 0
MS labeling percentage, Lyo [4]: 2.1%
MS labeling percentage, Myo [5]: 0%
MS labeling percentage, STAT5B [6]: 2.9%
STAT5B-NTD (experimental hit status) [6, 9]: 0
MS labeling percentage, STAT5B+photocat [7]: 3.2%
Labeling of the other protein targets (vs. preferred target) [8]: > 3% and < 3%

MS labeling percentage, CA [1]: 1.2%
SMILES: CC1(CCC(=O)NCc2nc3ncccc3[nH]2)N=N1 [PhP053, N1=NC1(C)CCC(=O)NCc(n2)[nH]c(c23)cccn3]
MS labeling percentage, BRD4 [2]: 6.7%
BRD4-BD1 (experimental hit status) [2, 9]: 1
MS labeling percentage, KRas [3]: 2%
KRAS-G12D (experimental hit status) [3, 9]: 0
MS labeling percentage, Lyo [4]: 0%
MS labeling percentage, Myo [5]: 0.6%
MS labeling percentage, STAT5B [6]: 0%
STAT5B-NTD (experimental hit status) [6, 9]: 0
MS labeling percentage, STAT5B+photocat [7]: 1%
Labeling of the other protein targets (vs. preferred target) [8]: > 2% and < 2%

MS labeling percentage, CA [1]: 0.1%
SMILES: Cc1c[nH]c(=O)n1-c1cccc(CNC(=O)CCC2(C)N=N2)c1 [PhP077, Cc1c[nH]c(=O)n1-c2cccc(c2)CNC(=O)CCC3(C)N=N3]
BRD4-BD1 (experimental hit status) [2, 10]: 0
MS labeling percentage, KRas [3]: 0.7%
KRAS-G12D (experimental hit status) [3, 10]: 0
MS labeling percentage, Lyo [4]: 0%
MS labeling percentage, Myo [5]: 0.2%
MS labeling percentage, STAT5B [6]: 20%
STAT5B-NTD (experimental hit status) [6, 10]: 0
MS labeling percentage, STAT5B+photocat [7]: 11.5%
Labeling of the other protein targets (vs. preferred target) [8]: > 3% and < 3%
